The test system of one assay is 5-HT1A receptor site. To be noted: cited from earlier work.
In the next assay the target is T1, dopamine D-2 receptor (Rattus norvegicus, UniProt P61169).
T1 construct: from tissue; host or cells: homogenized limbic brain tissue
Description: D-2 Binding (3H-spiroperidol, homogenized limbic brain tissue). Here is the method:
High affinity for the dopamine D-2 receptor was established by the standard experimental test procedure of Fields, et al., Brain Res., 136, 578 (1977) and Yamamura et al., eds., Neurotransmitter Receptor Binding, Raven Press, N.Y. (1978) wherein homogenized limbic brain tissue is incubated with ^3 H-spiroperidol and various concentrations of test compound, filtered and washed and shaken with Hydrofluor scintillation cocktail (National Diagnostics) and counted in a Packard 460 CD scintillation counter.

For assay [1], the target named is T2, serotonin 5-HT1A receptor (Rattus norvegicus, UniProt P19327).
T2 construct: following the procedure of Hall et al., J. Neurochem; 44, 1685 (1985); from tissue
T2 sequence (P19327 1-422): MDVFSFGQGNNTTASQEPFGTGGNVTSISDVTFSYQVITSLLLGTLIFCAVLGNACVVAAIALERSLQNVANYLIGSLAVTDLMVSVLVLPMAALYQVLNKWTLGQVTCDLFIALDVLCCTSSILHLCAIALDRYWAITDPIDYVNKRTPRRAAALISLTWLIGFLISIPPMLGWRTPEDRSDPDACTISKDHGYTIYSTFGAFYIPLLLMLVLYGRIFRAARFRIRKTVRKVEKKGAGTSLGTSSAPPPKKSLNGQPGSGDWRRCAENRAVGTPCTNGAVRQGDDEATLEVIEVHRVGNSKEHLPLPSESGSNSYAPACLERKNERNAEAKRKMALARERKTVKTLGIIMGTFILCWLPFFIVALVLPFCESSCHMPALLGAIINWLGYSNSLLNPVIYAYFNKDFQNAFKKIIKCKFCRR
The assay can be described thus: 5-HT1A Binding (displacement of [3H] 8-OHDPAT). The text has this: High affinity for the serotonin 5-HT1A receptor was established by testing the claimed compound's ability to displace [^3 H] 8-OHDPAT (dipropylaminotetralin) from the 5-HT1A serotonin receptor following the procedure of Hall et al., J. Neurochem. 44, 1685 (1985). […] The anxiolytic activity of buspirone is believed to be, at least partially, due to its 5-HT1A receptor affinity (Vander Maclen et al., Eur. J. Pharmacol. 1986, 129 (1-2) 133-130).
For orientation: In a radioligand displacement assay an active substance lowers the binding of a labelled ligand.

The subject of assay [2] is 5-HT1A serotonin receptor subtype. To be noted: standard for anxiolytic activity; cited from earlier work.

Results on eight molecules are retold here after patent US5212170A, “Psychotropic piperidinylmethyl benzodioxans” (American Home Products Corporation, priority 1992, dated 1993).

One may read the inhibition as the percentage by which the read-out fell short of the control. Broadly, the IC50 is the concentration that gives 50% inhibition. Read a high IC50 as weaker potency.

T1 sequence (P61169 whole entry): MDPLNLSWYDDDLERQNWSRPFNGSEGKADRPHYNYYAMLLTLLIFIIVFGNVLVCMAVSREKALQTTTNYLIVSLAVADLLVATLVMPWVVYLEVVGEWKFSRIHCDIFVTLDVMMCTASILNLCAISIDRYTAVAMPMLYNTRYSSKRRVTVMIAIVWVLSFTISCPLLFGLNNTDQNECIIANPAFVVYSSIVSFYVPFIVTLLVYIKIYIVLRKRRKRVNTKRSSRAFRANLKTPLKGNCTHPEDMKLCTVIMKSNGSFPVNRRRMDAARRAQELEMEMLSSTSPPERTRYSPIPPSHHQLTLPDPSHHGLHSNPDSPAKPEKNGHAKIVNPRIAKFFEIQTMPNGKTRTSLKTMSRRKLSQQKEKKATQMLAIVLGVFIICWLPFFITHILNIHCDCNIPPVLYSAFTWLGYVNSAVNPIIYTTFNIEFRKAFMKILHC

In the case of `O=C1CC2(CCCC2)CC(=O)N1CCCCNCC1COc2ccccc2O1` (stereo not drawn) [MDL 72832, 8-[4-(1,4-benzodioxan-2-ylmethylamino)butyl]-8-azaspiro[4.5]decane-7,9-dione], the “ligand selectivity for 5-HT1A receptors” value in the assay with 5-HT1A receptor site (Fozard et al. 1987) was “selective and stereospecific”.
On dopamine D-2 receptor, `O=C(NCC1CCN(CC2COc3ccccc3O2)CC1)C12CC3CC(CC(C3)C1)C2` (stereo not drawn) [Example 5, N-[[1-[(2,3-Dihydro-1,4-benzodioxin-2-yl)methyl]-4-piperidinyl]methyl]tricyclo[3.3.1.1^3,7]decane-1-carboxamide] yielded an inhibition at 1 µM of 52%. Testing at 0.1 µM in assay [1] gave an inhibition of 92%.
For `O=C1CC2(CCCC2)CC(=O)N1CCCCN1CCN(c2ncccn2)CC1` [buspirone], the “affinity for the 5-HT1A serotonin receptor subtype” value in assay [2] was “potent affinity”.
Turning to `O=C1C2C3C=CC(C4C=CC43)C2C(=O)N1C1CCN(CC2COc3ccccc3O2)CC1` (stereo not drawn) [Example 2, 3a, 4,4a, 6a, 7,7a-Hexahydro-2-[1-[(2,3-Dihydro-1,4-benzodioxin-2-yl)methyl]-4-piperidinyl]-4,7-etheno-1H-cyclobut[f]isoindole-1,3(2H)-dione], in assay [1], at 0.1 µM the inhibition was 4%.
As to `O=C(NC1CCN(CC2COc3ccccc3O2)CC1)C12CC3CC(CC(C3)C1)C2` (stereo not drawn) [Example 1, N-[1-[(2,3-Dihydro-1,4-benzodioxin-2-yl)methyl]-4-piperidinyl]tricyclo[3.3.1.1^3,7]decane-1-carboxamide], the inhibition at 1 µM on dopamine D-2 receptor stood at 29%. In assay [1], this molecule had an IC50 of 107 nM and an inhibition at 0.1 µM of 59%.
As to `O=C1c2ccccc2S(=O)(=O)N1C1CCN(CC2COc3ccccc3O2)CC1` (stereo not drawn) [Example 3, 2-[1-[(2,3-Dihydro-1,4-benzodioxin-2-yl)methyl]-4-piperidinyl]-1,2-benzoisothiazol-3(2H)-one 1,1-dioxide], in assay [1], the inhibition at 0.1 µM is 45%.
Turning to `O=C1C2CC(C(=O)N1CC1CCN(CC3COc4ccccc4O3)CC1)C1C2C2C3CC4C2C4C31` (stereo not drawn) [Example 4, 3-[[1-[(2,3-Dihydro-1,4-benzodioxin-2-yl)methyl]-4-piperidinyl]methyl]decahydro-2H-1,5-methano-6,7,9-methenopentaleno[1,2-d]azepine-2,4(3H)-dione], testing at 1 µM at dopamine D-2 receptor gave an inhibition of 97%. For the same molecule, the inhibition at 0.1 µM in assay [1] was 96%.
As for `O=C1CC2(CCCC2)CC(=O)N1CCCCNCC1COc2ccccc2O1` (single isomer, unassigned; (-)) [(-)-MDL 72832], the “binding at the 5-HT1A receptor site relative to the dextrorotary isomer” value in the assay with 5-HT1A receptor site ((-)-isomer vs dextrorotary isomer) is recorded as 32 times.
